Data from patent publication WO2016116777A1, “Compositions and methods for treatment of chronic lymphocytic leukemia and small lymphocytic leukemia using a btk inhibitor” (dated 2016).
Entries after “also recorded” stand apart in the source; their conditions may differ.

Experiments:
[1] = test system: human platelet-mediated thrombosis; test: In vivo human platelet thrombus formation in VWF HA1 mutant mice (laser injury)
CLL = conditions: cited from earlier work
[2] = biological target: epidermal growth factor receptor (EGFR) (Homo sapiens, UniProt P00533); conditions: in vitro; cited from earlier work
Sequence of epidermal growth factor receptor (EGFR) (P00533 25-1210): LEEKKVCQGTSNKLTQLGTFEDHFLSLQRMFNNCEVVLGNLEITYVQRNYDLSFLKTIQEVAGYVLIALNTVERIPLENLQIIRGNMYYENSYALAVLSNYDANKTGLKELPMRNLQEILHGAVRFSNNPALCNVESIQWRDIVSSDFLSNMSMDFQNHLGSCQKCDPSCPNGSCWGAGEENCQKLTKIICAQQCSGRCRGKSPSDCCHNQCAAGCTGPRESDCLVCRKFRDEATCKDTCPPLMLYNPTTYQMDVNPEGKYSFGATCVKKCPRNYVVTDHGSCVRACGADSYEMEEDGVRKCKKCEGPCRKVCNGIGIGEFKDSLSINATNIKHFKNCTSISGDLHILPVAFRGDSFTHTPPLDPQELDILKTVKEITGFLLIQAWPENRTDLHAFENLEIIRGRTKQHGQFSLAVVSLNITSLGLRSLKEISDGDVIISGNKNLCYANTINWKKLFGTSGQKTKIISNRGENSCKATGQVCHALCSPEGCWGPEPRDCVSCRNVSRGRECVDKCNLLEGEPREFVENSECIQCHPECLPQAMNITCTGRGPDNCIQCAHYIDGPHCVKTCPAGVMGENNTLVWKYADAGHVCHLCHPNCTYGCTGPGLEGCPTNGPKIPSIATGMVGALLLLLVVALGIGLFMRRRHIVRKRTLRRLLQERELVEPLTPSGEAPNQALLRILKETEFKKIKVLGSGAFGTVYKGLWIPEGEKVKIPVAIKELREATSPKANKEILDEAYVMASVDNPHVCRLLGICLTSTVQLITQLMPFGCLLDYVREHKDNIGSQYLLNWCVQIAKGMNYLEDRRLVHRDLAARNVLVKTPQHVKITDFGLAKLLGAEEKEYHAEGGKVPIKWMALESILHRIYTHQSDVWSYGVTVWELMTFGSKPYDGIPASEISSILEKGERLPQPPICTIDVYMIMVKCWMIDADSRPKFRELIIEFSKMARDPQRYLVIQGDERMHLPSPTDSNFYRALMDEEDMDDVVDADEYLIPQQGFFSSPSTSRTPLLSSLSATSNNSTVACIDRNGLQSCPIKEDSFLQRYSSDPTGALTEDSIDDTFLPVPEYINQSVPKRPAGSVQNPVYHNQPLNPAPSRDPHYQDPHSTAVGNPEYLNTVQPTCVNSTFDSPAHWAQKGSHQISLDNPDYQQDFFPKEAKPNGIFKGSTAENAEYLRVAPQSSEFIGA

[3] = test system: cytochrome P450 (CYP) enzymes 3A4/5 and 2D6; conditions: cited from earlier work
[4] = test system: platelet collagen receptor glycoprotein VI (GPVI); test: GPVI platelet aggregation; type: cell-based, human
[5] = biological target: T1, interleukin-2 inducible tyrosine kinase (ITK) (Homo sapiens, UniProt Q08881); conditions: cited from earlier work
T1 sequence (Q08881 1-620): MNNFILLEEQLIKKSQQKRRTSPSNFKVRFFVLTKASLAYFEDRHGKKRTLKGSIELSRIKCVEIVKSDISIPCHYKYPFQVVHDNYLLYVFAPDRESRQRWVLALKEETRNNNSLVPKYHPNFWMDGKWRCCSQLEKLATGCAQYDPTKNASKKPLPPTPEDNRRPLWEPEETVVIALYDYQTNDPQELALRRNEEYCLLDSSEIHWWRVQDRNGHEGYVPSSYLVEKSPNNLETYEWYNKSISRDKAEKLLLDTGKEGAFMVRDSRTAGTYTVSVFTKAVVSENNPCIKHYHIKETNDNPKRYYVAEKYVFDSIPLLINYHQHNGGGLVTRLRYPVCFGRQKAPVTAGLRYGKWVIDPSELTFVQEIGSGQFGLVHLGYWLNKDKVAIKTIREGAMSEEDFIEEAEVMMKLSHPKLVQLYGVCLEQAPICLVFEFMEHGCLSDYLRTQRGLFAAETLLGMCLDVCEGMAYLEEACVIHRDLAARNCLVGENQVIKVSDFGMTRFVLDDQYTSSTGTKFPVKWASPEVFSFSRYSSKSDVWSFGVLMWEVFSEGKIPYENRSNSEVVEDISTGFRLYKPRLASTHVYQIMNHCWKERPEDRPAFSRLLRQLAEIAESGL

regulatory T cell (Treg) = test: Effect on Treg development
CD8+ T cell = test: Effect on CD8+ T cell viability
Th17 cells = test: Effect on Th17 cells
[6] = test system: NK cells (CD56+/CD107a+) with MEC-1 cells; test: NK cell degranulation/ADCC whole blood assay with obinutuzumab-opsonised MEC-1 cells; type: cell-based, human; conditions: 0.1, 1 and 10 μM, MEC-1 opsonised with obinutuzumab 1 μg/mL, 4 hours
NK cells = conditions: cited from earlier work
B cell receptor = test: In vitro potency in whole blood, inhibition of signals through the B cell receptor (CD69); type: cell-based; conditions: whole blood from four healthy donors, 2 hours incubation, anti-human IgD 18 hours, read-out: EC50, CD69 on gated CD19+ B cells
[7] = Phase 1, previously treated CLL, monotherapy
[8] = Phase 1 portion, relapsed/refractory CLL, n=13

C=CC(=O)Nc1cccc(Nc2nc(Nc3ccc(OCCOC)cc3)ncc2F)c1 [CC-292]
effect on human platelet-mediated thrombus formation [1]: interfere with thrombus formation; also recorded: effect similar to ibrutinib

obinutuzumab: humanized monoclonal antibody directed against CD20
MRD-negative complete response, number (CLL; [7]): 1
response rate (CLL; [7]): 62%
patients with Grade 3 IRRs (CLL; [8]): 15%
patients with Grade 4 IRRs (CLL; [8]): no Grade 4
patients with IRRs, all grade (CLL; [8]): 100%
patients developing IRR (CLL; Phase 2 portion, relapsed/refractory CLL): 95%
Grade 3 reactions among those (CLL; Phase 2 portion): 25%
cases developing symptoms of hypotension (CLL; Phase 2 portion): 60%

C=CC(=O)N1CCC[C@@H](n2nc(-c3ccc(Oc4ccccc4)cc3)c3c(N)ncnc32)C1 [ibrutinib]
EGFR inhibition [2]: inhibits epidermal growth factor receptor (EGFR)
CYP substrate [3]: substrate for both cytochrome P450 (CYP) enzymes 3A4/5 and 2D6
GPVI platelet aggregation [4]: significantly inhibits GPVI platelet aggregation
IC50 ([4]; Homo sapiens, Platelet): 130 nM
ITK binding [5]: irreversibly binds ITK
effect on Treg development (regulatory T cell (Treg)): strongly increases Treg development; also recorded: increase in Treg development
effect on CD8+ T cell viability (CD8+ T cell): strongly affects CD8 T cell viability at higher doses; also recorded: strong, negative effect
effect on Th17 cells (Th17 cells): strongly inhibits Thl7 cells; also recorded: profound inhibition
percentage of CD56+/CD107a+ NK cells / antagonism [6]: strong reduction
effect on rituximab ADCC mediated by NK cells (NK cells): antagonizes rituximab antibody-dependent cell mediated cytotoxicity (ADCC); also recorded: undesirably antagonizes rituximab ADCC effects
EC50 (B cell receptor): 6.1 nM
